Assays:
αvβ3 integrin = αvβ3 integrin (Homo sapiens, UniProt P05106+P06756); assay: Assay for the inhibition of αvβ3 integrin binding (vitronectin as ligand); design: purchased Chemicon International, Inc., USA; details: inhibition of specific binding of biotinylated human vitronectin to immobilized αvβ3 integrin
Method: Experiment 1: Assay for the Inhibition of αvβ3 integrin binding
This experiment was carried out based on the method described in […].
Purified human αvβ3 integrin (Chemicon International, Inc., USA) was adjusted to a concentration of 1 μg/ml with TBS^++ [20 mM Tris-HCl (pH 7.4), 150 mM NaCl, 1 mM CaCl2, 1 mM MgCl2], and the diluted solution was added to plates (Labsystems, Finland) at 50 μl/well. The plate was left at 4° C. overnight for immobilization of the αvβ3 integrin. All subsequent steps were done at 25° C., and the procedure for each well was described hereafter.
The solution was discarded, and then 200 μl of TBS^++ containing 1% BSA (Wako Pure Chemical Industries, Ltd., Japan) was added to the well and left for one hour for blocking. The well was washed with a wash solution (TBS^++ containing 0.01% Tween 20) 4 times, and 50 μl of a reaction solution (TBS^++ containing 0.1% BSA and 0.01% Tween 20) was added to the well. Subsequently, 25 μl of a test compound solution adjusted to each concentration with the reaction solution was added, and then mixed with 25 μl of biotinylated (Amersham Pharmacia Biotech, UK) human vitronectin (Gibco BRL, USA) adjusted to 0.4 μg/ml with the reaction solution. The mixture was reacted for 2 hours. After washing 4 times with the wash solution, 100 μl of peroxidase-labeled streptoavidin (Amersham Pharmacia Biotech, UK) diluted 1:500 with the reaction solution was added to the well. Following 30 minutes reaction, the well was washed 4 times with the wash solution, and 100 μl of a TMB substrate solution (Bio-Rad Laboratories, USA) was added to the well. Color was developed for 20 minutes and the reaction was stopped by adding 100 μl of 0.5 M sulfuric acid.
(§1) The absorbance at 450 nm was measured with a plate reader (Molecular Devices, USA) to obtain a total binding. To obtain a nonspecific binding, EDTA adjusted to 20 mM with the reaction solution was added instead of the test compound solution. A specific binding was calculated by subtracting the nonspecific binding from the total binding.

αIIbβ3 integrin = target: T1, αIIbβ3 integrin (Homo sapiens, UniProt P05106+P08514); assay: Assay for the inhibition of αIIbβ3 integrin binding (fibrinogen as ligand, integrin captured from platelet lysate); details: inhibition of specific binding of biotinylated fibrinogen to αIIbβ3 integrin from human platelet lysate
T1 construct: from tissue; host or cells: human platelets (Triton X-100 lysate)
Method: Experiment 2: Assay for the Inhibition of αIIbβ3 Integrin Binding
This experiment was carried out based on the method described in Thromb. Haemostasis, 75, 339 (1996), Blood, 93, 2559 (1999), using fibrinogen as a ligand. According to the method described in the above literatures, assay for the inhibition of αIIbβ3 integrin binding can be achieved by capturing αIIbβ3 integrin from platelet lysate with the use of an activated antibody against αIIbβ3 integrin.
Human platelets were isolated in a conventional manner. At 25° C., the isolated platelets were adjusted to a concentration of 1.25×10^9/ml with TBS+[50 mM Tris-HCl (pH 7.4), 150 mM NaCl, 2 mM CaCl2], and then ⅛ volume of TBS^+ containing 2 mM leupepsin and 10 mM PMSF was added and stirred gently. Nest, 1/9 volume of TBS+ containing 10% Triton X-100 was added and stirred gently. After standing on ice for 30 minutes, a platelet lysate was prepared from the mixture by discarding the insoluble fraction with centrifugation (10,000 g, 15 minutes).
Anti-mouse IgG goat antibody (Jackson Immunoresearch Laboratories, Inc., USA) was adjusted to a concentration of 5 μg/ml with sodium carbonate buffer (pH 9.6) and added to plates at 50 μl/well. The plate was left at 4° C. overnight for immobilization of the antibody. All subsequent steps were done at 25° C., and the procedure for each well was described hereafter.
The well was washed once with TBS^+, and then 200 μl of TBS^+ containing 5% BSA was added to the well and left for one hour for blocking. The well was washed with a reaction solution (TBS^+ containing 0.1% BSA and 0.05% Triton X-100) 4 times, and then 50 μl of anti-human αIIbβ3 integrin activated monoclonal antibody (TAKARA SHUZO CO., LTD, Japan, PT25-2 strain) adjusted to 5 μg/ml with the reaction solution was added to the well. After one hour reaction, the well was washed 4 times with the reaction solution, and 50 μl of the platelet lysate diluted 1:2 with the reaction solution was added to the well. Following 2 hours reaction, the well was washed 4 times with the reaction solution, and 50 μl of the reaction solution was added to the well. Subsequently, 25 μl of a test compound solution adjusted to each concentration with the reaction solution was added, and then mixed with 25 μl of biotinylated fibrinogen (Calbiochem, Germany) adjusted to 2 μg/ml with the reaction solution. The mixture was reacted for one hour. After washing 4 times with the reaction solution, 100 μl of alkaline phosphatase-labeled streptoavidin (Gibco BRL, USA) diluted 1:500 with the reaction solution was added to the well. Following 30 minutes reaction, the well was washed 4 times with the wash solution. Next, 50 μl of the NaDPH solution (Invitrogen, former company name: Gibco BRL, USA) was added and reacted for 20 minutes, and then 50 μl of an amplification solution containing diaphorase and alcohol dehydrogenase (Invitrogen, former company name: Gibco BRL, USA) was added. Color was developed for 20 minutes and the reaction was stopped by adding 50 μl of 0.5 M sulfuric acid.
as §1, with “495” for “450”, “reader” for “reader (Molecular Devices, USA)”

Chain of αvβ3 integrin (P06756 31-889 limits assumed): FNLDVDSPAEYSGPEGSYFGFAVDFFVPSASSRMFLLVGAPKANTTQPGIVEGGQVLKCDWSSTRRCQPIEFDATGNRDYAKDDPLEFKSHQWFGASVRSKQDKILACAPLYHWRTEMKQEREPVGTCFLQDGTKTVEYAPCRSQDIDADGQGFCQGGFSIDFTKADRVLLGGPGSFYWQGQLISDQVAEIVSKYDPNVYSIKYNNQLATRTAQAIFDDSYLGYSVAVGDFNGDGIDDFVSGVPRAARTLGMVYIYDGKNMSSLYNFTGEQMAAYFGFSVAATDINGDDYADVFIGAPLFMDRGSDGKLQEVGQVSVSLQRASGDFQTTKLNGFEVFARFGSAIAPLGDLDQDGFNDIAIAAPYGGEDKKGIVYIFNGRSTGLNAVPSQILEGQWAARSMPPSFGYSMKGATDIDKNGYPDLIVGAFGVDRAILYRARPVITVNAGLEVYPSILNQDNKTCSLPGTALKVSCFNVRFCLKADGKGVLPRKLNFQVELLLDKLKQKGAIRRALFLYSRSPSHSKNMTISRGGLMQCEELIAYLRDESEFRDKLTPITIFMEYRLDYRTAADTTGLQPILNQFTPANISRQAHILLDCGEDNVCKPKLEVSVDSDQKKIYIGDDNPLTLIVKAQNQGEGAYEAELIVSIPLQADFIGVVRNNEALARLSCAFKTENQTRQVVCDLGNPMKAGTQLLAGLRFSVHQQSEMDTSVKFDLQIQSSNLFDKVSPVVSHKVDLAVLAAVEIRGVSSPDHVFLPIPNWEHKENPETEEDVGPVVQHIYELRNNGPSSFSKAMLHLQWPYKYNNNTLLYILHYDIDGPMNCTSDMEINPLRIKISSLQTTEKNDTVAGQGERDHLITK
Chain of αvβ3 integrin (P06756 891-1048 partner limits assumed): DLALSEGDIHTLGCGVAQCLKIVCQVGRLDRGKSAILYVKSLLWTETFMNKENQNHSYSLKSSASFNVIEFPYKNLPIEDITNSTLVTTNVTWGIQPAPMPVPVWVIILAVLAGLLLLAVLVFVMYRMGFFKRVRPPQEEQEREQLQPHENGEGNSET
Chain of αvβ3 integrin (P05106 27-788): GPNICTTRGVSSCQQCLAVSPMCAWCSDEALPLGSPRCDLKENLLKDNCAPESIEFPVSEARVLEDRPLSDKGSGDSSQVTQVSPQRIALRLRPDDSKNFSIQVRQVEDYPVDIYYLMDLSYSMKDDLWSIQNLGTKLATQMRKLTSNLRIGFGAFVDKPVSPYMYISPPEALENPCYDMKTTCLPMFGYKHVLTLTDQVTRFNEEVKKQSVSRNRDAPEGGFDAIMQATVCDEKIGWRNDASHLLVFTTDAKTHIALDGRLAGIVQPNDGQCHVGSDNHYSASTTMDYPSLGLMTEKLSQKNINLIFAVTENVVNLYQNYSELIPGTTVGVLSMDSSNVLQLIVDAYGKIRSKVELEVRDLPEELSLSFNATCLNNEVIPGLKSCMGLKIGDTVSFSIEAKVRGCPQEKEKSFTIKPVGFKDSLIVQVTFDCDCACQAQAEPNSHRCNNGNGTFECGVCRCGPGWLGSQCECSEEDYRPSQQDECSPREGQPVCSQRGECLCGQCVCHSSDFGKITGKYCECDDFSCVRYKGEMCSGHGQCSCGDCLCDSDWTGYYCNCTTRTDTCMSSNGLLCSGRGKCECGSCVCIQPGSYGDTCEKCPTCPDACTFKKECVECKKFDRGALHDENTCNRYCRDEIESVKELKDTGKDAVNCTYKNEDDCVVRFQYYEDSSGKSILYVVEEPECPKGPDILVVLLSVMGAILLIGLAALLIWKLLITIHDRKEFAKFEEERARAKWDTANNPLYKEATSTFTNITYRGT
T1 sequence (P08514 32-887 limits assumed): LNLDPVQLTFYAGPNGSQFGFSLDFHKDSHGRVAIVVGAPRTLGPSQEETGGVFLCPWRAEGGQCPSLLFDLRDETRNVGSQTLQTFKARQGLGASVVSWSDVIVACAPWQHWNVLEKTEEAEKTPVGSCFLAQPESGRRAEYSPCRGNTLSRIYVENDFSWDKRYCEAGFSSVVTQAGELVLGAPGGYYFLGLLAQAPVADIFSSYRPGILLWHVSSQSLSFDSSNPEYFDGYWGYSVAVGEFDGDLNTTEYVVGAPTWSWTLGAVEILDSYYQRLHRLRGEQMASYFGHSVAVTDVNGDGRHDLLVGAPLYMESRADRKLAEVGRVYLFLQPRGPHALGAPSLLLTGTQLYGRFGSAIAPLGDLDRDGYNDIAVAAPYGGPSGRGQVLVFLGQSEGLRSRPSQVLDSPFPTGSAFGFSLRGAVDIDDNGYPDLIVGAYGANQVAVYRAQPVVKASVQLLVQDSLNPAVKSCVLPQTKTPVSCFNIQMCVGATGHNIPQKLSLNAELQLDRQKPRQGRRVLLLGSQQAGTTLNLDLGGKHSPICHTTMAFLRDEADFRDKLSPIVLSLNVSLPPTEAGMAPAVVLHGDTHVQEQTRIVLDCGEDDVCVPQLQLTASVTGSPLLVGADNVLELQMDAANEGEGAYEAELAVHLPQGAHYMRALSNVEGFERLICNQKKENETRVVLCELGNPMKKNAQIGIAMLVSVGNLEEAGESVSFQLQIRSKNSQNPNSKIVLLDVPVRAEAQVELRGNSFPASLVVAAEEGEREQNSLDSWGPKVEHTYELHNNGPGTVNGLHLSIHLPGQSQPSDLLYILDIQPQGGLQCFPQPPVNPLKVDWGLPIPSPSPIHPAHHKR
T1 sequence (P08514 891-1039 partner limits assumed): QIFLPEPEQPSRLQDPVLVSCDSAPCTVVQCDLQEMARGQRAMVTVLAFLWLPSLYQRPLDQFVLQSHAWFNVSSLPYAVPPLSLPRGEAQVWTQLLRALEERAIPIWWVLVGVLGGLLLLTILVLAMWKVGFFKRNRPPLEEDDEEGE
T1 sequence (P05106 27-788): as the sequence (P05106 27-788) above

Row | IC50 (αvβ3 integrin) [nM] | IC50 (αIIbβ3 integrin) [nM] | SMILES
1 | 0.063 | 540 | O=C(N[C@@H](CCC(=O)N1CCN(c2cccc(NC3=NCC(F)CN3)c2)CC1)C(=O)O)OCc1ccccc1 (stereo partly drawn) [Ex. 124, (2S)-2-benzyloxycarbonylamino-5-[4-[3-(5-fluoro-1,4,5,6-tetrahydropyrimidin-2-yl)aminophenyl]piperazin-1-yl]-5-oxopentanoic acid]
2 | 0.096 | 530 | COc1ccc(NC2=NCCCN2)cc1N1CCN(C(=O)CC[C@H](NC(=O)OCc2ccccc2)C(=O)O)CC1 [Ex. 154, (2S)-2-benzyloxycarbonylamino-5-[4-[2-methoxy-5-(1,4,5,6-tetrahydropyrimidin-2-yl)aminophenyl]piperazin-1-yl]-5-oxopentanoic acid]
3 | 0.38 |  | CC(C)COC(=O)N[C@@H](CCC(=O)N1CCN(c2cccc(NC3=NCC(C)(C)CN3)c2)CC1)C(=O)O [Ex. 126]
4 | 0.3 |  | CC(C)COC(=O)N[C@@H](CCC(=O)N1CCN(c2cccc(NC3=NCC(O)CN3)c2)CC1)C(=O)O (stereo partly shown) [Ex. 128]
5 | 0.06 | 43 | O=C(N[C@@H](CNC(=O)C1CCN(c2cccc(NC3=NCCCN3)c2)CC1)C(=O)O)OCc1ccccc1 [Ex. 2, (2S)-2-benzyloxycarbonylamino-3-[[1-[3-(1,4,5,6-tetrahydropyrimidin-2-yl)aminophenyl]piperidin-4-yl]carbonylamino]propanoic acid]
6 | 0.081 | 52 | Cc1cc(N2CCC(C(=O)NC[C@H](NC(=O)OCc3ccccc3)C(=O)O)CC2)nc(NC2=NCCCN2)n1 [Ex. 150, (2S)-2-benzyloxycarbonylamino-3-[[1-[2-(1,4,5,6-tetrahydropyrimidin-2-yl)amino-6-methylpyrimidin-4-yl]piperidin-4-yl]-carbonylamino]propanoic acid]
7 | 0.075 | 74 | O=C(N[C@@H](CNC(=O)C1CCN(c2cccc(NC3=NCCCCN3)c2)CC1)C(=O)O)OCc1ccccc1 [Ex. 10, (2S)-2-benzyloxycarbonylamino-3-[[1-[3-(1H-4,5,6,7-tetrahydro-1,3-diazepin-2-yl)aminophenyl]piperidin-4-yl]carbonylamino]propanoic acid]
8 | 1.9 | 510 | O=C(N[C@@H](CNC(=O)C1CCC(c2cccc(NC3=NCCCN3)c2)CC1)C(=O)O)OCc1ccccc1 (single isomer, unassigned) [Ex. 151B]
9 | 0.14 | 87 | CC1(C)CN=C(Nc2cccc(N3CCC(C(=O)NC[C@H](NC(=O)OCc4ccccc4)C(=O)O)CC3)c2)NC1 [Ex. 11, (2S)-2-benzyloxycarbonylamino-3-[[1-[3-(5,5-dimethyl-1,4,5,6-tetrahydropyrimidin-2-yl)aminophenyl]piperidin-4-yl]carbonylamino]-propanoic acid]
10 | 0.055 | 13 | COc1ccc(NC2=NCCCN2)cc1N1CCC(C(=O)NC[C@H](NC(=O)OCc2ccccc2)C(=O)O)CC1 [Ex. 152, (2S)-2-benzyloxycarbonylamino-3-[[1-[2-methoxy-5-(1,4,5,6-tetrahydropyrimidin-2-yl)aminophenyl]piperidin-4-yl]carbonylamino]propanoic acid]
11 | 3.6 |  | CCNC(=O)N[C@@H](CCC(=O)N1CCN(c2cccc(NC3=NCCCN3)c2)CC1)C(=O)O [Ex. 142]
12 | 0.74 | > 1000 | CCCCCCCCCCOC(=O)N[C@@H](CCC(=O)N1CCN(c2cccc(NC3=NCC(C)CN3)c2)CC1)C(=O)O (stereo partly shown) [Ex. 135]
13 | 0.28 | 880 | CCCCCCOC(=O)N[C@@H](CCC(=O)N1CCN(c2cccc(NC3=NCCCN3)c2)CC1)C(=O)O [Ex. 137, (2S)-2-hexyloxycarbonylamino-5-[4-[3-(1,4,5,6-tetrahydropyrimidin-2-yl)aminophenyl]piperazin-1-yl]-5-oxopentanoic acid]
14 | 0.042 | 59 | O=C(N[C@@H](CNC(=O)C1CCN(c2cccc(NC3=NCC(F)CN3)c2)CC1)C(=O)O)OCc1ccccc1 (stereo partly drawn) [Ex. 13, (2S)-2-benzyloxycarbonylamino-3-[[1-[3-(5-fluoro-1,4,5,6-tetrahydropyrimidin-2-yl)aminophenyl]piperidin-4-yl]carbonylamino]-propanoic acid]
15 | 0.051 | 26 | CCCCCCOC(=O)N[C@@H](CNC(=O)C1CCN(c2cccc(NC3=NCCCN3)c2)CC1)C(=O)O [Ex. 88, (2S)-2-hexyloxycarbonylamino-3-[[1-[3-(1,4,5,6-tetrahydropyrimidin-2-yl)aminophenyl]piperidin-4-yl]carbonylamino]propanoic acid]
16 | 0.22 | 30 | Cc1cc(C)c(S(=O)(=O)N[C@@H](CCC(=O)N2CCN(c3cccc(NC4=NCCCN4)c3)CC2)C(=O)O)c(C)c1 [Ex. 140]
17 | 0.077 |  | O=C(N[C@@H](CCC(=O)N1CCN(c2cc(NC3=NCCCN3)ccc2F)CC1)C(=O)O)OCc1ccccc1 [Ex. 155, (2S)-2-benzyloxycarbonylamino-5-[4-[2-fluoro-5-(1,4,5,6-tetrahydropyrimidin-2-yl)aminophenyl]piperazin-1-yl]-5-oxopentanoic acid]
18 | 0.59 |  | CCOC(=O)N[C@@H](CCC(=O)N1CCN(c2cccc(NC3=NCCCN3)c2)CC1)C(=O)O [Ex. 136]
19 | 6.8 |  | O=C(Cc1ccccc1)N[C@@H](CCC(=O)N1CCN(c2cccc(NC3=NCCCN3)c2)CC1)C(=O)O [Ex. 139]
20 | 0.21 | 60 | COCCOC(=O)N[C@@H](CNC(=O)C1CCN(c2cccc(NC3=NCCCN3)c2)CC1)C(=O)O [Ex. 94, (2S)-2-(2-methoxyethoxycarbonylamino)-3-[[1-[3-(1,4,5,6-tetrahydropyrimidin-2-yl)aminophenyl]piperidin-4-yl]carbonylamino]-propanoic acid]
21 | 1.4 |  | O=C(NCc1ccccc1)N[C@@H](CCC(=O)N1CCN(c2cccc(NC3=NCCCN3)c2)CC1)C(=O)O [Ex. 143]

Row | SMILES | IC50 (αvβ3 integrin) [nM] | IC50 (αIIbβ3 integrin) [nM]
22 | CC(C)COC(=O)N[C@@H](CCC(=O)N1CCN(c2cccc(NC3=NCCCN3)c2)CC1)C(=O)O [Ex. 138, (2S)-2-isobutoxycarbonylamino-5-[4-[3-(1,4,5,6-tetrahydropyrimidin-2-yl)aminophenyl]piperazin-1-yl]-5-oxopentanoic acid] | 0.32 | 
23 | CC(C)COC(=O)N[C@@H](CCC(=O)N1CCN(c2cccc(NC3=NCC(F)CN3)c2)CC1)C(=O)O (stereo partly drawn) [Ex. 127, (2S)-2-Isobutoxycarbonylamino-5-[4-[3-(5-fluoro-1,4,5,6-tetrahydropyrimidin-2-yl)aminophenyl]piperazin-1-yl]-5-oxopentanoic acid] | 0.055 | 

— patent US7176199B2, “Aryl-substituted alicyclic compound and medical composition comprising the same” (Dainippon Pharmaceutical Co., Ltd., priority 2001, dated 2007)
